This is an account of results in publication PMC10829512, “Transport of metformin metabolites by guanidinium exporters of the small multidrug resistance family” (The Journal of General Physiology, 2024).

Molecules are shown by their SMILES.

Experiment [1] concerns the target T1, Gdx-Clo (Clostridiales bacterium oral taxon 876, UniProt U2EQ00).
T1 sequence (U2EQ00 1-105): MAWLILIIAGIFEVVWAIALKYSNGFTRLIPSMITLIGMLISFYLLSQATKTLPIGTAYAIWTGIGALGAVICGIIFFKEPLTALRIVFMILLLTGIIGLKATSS
Nature of the experiment: Isothermal titration calorimetry (ITC). Particulars: for n: ITC binding stoichiometry, pH 8.5, mean ± SEM; for Kd / TΔS / ΔG / ΔH / Binding stoichiometry: ITC; for Kd / TΔS / ΔG / ΔH: pH 8.5, 25°C, mean ± SEM; for Binding stoichiometry: pH 8.5, exothermic binding. The experiment is classed as binding, Clostridales oral taxon 876. The procedure:
ITC experiments were conducted using a low-volume Nano ITC instrument (TA Instruments). […] For each experiment, 300 µl of 700 µM Gdx-Clo was loaded in the sample chamber maintained at 25°C with 350 rpm stirring speed. […] The sample was titrated (0.75 µl injections) at 100-s increments. Once an acceptable baseline slope was achieved (0.30 µW/h and 0.03 µW standard deviation), a 200 s baseline (∼112 µW) was taken prior to beginning titrations. Data were analyzed using NanoAnalyze software.
For both substrates, the Kd value measured using ITC was in good agreement with the Kd value obtained using tryptophan fluorescence, validating the tryptophan fluorescence approach to monitor substrate binding.
On the technique in general: ITC needs no label: the signal is the heat of the interaction.

For experiment [2], the target named is Gdx-Clo A70C/S104C. Nature of the experiment: Tryptophan fluorescence binding to crosslinked variant. Further details: species or system Clostridales oral taxon 876. Conditions: A70C/S104C under oxidizing conditions, read-out: Kd, fit to a single-site binding model. On the procedure:
Fluorescence emission spectra (λex = 280 nm, […]) were collected for 1 µM purified protein in assay buffer containing 200 mM NaCl, 10 mM HEPES, 10 mM bicine, 10 mM NaPO4, and 5 mM DM, with pH adjusted from 6.5 to 9.0. Substrate was added from a stock solution prepared in assay buffer. For Gdm^+ titrations, the change in fluorescence, F, as a function of substrate fit to a single site binding isotherm, ∆F=(Fmax[S]/Kd+[S]). (3)
For all SSM electrophysiology experiments, the shapes of the substrate-induced currents are characteristic of transport, rather than electrogenic presteady binding events. However, we sought to confirm this interpretation for at least one transporter/substrate pair. Using the structure of Gdx-Clo ([Kermani et al., 2020]), we introduced a pair of cysteines, A70C and S104C, that are within the crosslinking distance (∼6 Å) on the open side of the transporter, but that increase in distance when the transporter changes conformation. We expected that the formation of a crosslink would lock the transporter in one open conformation, impairing transport, with little effect on substrate binding (Fig. 2 C). […] Substrate exchange is restored in reducing conditions. […]

The target of experiment [3] is Gdx-Eco (Escherichia coli, UniProt P69937). Further details: method as in Kermani et al., 2018; Thomas et al., 2021. Particulars: ref Kermani et al., 2018, Thomas et al., 2021; cited from earlier work.
Sequence of Gdx-Eco (P69937 whole entry): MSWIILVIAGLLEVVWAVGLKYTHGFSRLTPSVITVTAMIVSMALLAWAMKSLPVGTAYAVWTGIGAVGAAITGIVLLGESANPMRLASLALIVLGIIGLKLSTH

For `N=C(N)NC(N)=O` [Guanylurea, guanylurea], in experiment [1], the n is reported as 0.43 ± 0.03, binding was put at a Kd of 140 ± 30 µM, the TΔS was -1.8 ± 0.6 kcal/mol and the ΔG is -5.4 ± 0.06 kcal/mol. Further, in experiment [1], the ΔH is -7.2 ± 0.6 kcal/mol and the Binding stoichiometry is recorded as ~1 substrate per protein dimer.
Consider `N=C(N)N` [Gdm^+, guanidinium], for which the Kd in experiment [2] stood at 560 µM. Moreover, the Proton coupling stoichiometry in experiment [3] was 2 H^+: 1 Gdm^+. In experiment [1], the n is reported as 0.56 ± 0.04, binding was characterised by a dissociation constant (Kd) of 410 ± 40 µM, the TΔS is -0.3 ± 0.9 kcal/mol and the ΔG was -4.6 ± 0.1 kcal/mol. Besides, in experiment [1], the ΔH is -4.9 ± 1.0 kcal/mol and the Binding stoichiometry is reported as ~1 substrate per protein dimer.

What is called Kd is the constant that tells how readily two partners part at equilibrium.
